The values below come from publication PMC6571685, “Rippled β-Sheet Formation by an Amyloid-β Fragment Indicates Expanded Scope of Sequence Space for Enantiomeric β-Sheet Peptide Coassembly” (Molecules, 2019).

Format in all cases: physicochemical
The nature of data set [1]: Visual observation of precipitate after dilution into PBS. As to conditions: 110 μM total peptide, DMSO stock diluted into PBS pH 7.4, 5% v/v DMSO. The procedure: (§1) The self-assembly of L- and D-Ac-KLVFFAE-NH2 peptides was compared to the assembly properties of an equimolar mixture of the enantiomers. The peptides were prepared via standard Fmoc solid phase peptide synthesis, purified by reverse-phase HPLC, and characterized by MALDI-TOF mass spectrometry (see Materials and Methods section for experimental details and Supplementary Materials for characterization and purity data). Prior to self-assembly, peptides were disaggregated by sequential treatment with trifluoroacetic acid and hexafluoroisopropanol using a modified Wetzel protocol; peptide concentrations were determined by comparison to standard analytical HPLC curves (see Supplementary Materials for details), as described previously for studies with Aβ(16–22). Disaggregated, lyophilized peptides were then dissolved in DMSO and diluted into phosphate-buffered saline (pH 7.4) to reach total peptide concentrations of 110 μM (55 μM of each L- and D-enantiomer for mixed coassembly studies) (final DMSO concentration was 5% v/v). Upon dilution, peptides were incubated at 37 °C for assembly.

Data set [2] in a line: HPLC sedimentation assay (modified Wetzel protocol) of peptide self-assembly / coassembly. The protocol: as §1
Comparison of self-assembly and coassembly of Aβ(16–22) was conducted by a time-dependent sedimentation analysis. For these studies, we adapted Wetzel’s HPLC sedimentation protocol that we have previously used to assess Aβ(16–22) self-assembly. Aliquots of self-assembly and coassembly mixtures were removed over time and subjected to ultracentrifugation to remove fibrils and […] order aggregates after which the concentration of unaggregated peptide was quantified. In these analyses, equilibrium between monomer and fibril is eventually reached, with the final monomer concentration, or critical concentration (Cr), providing a quantitative characterization of the dynamic equilibrium between fibrils of length n and monomer with fibrils of length n + 1. […]
Sedimentation assays were performed using a modified Wetzel protocol. […] These solutions were then analyzed by analytical HPLC for correlation to a concentration curve to determine remaining monomer concentration.

Data set [3] can be described thus: Transmission electron microscopy of assemblies, fibril widths. The settings on record: assembled 21 days in PBS pH 7.4, 5% DMSO, 37 °C, washed with water, uranyl acetate stain; ImageJ, averages from 100–150 measurements. The protocol:
Dried, disaggregated peptide aliquots were prepared for assembly as in sedimentation assays, but in larger volumes (greater than or equal to 5 mL) and were allowed to assemble for 21 days so as to allow for complete assembly of all samples. Following assembly, samples were centrifuged at 4300 × g for 90 min at 17 °C to collect aggregates. The supernatant was then carefully removed and deionized water added, mixed, and centrifugation repeated to wash. After first wash, supernatant was again removed and deionized water added and mixed, at which point samples were spotted for TEM or SEM if desired (below). Centrifugation was repeated once more and supernatant removed, and then samples were frozen and lyophilized. Lyophilized pellets were then placed on the solid-state stage of a Shimadzu FTIR-8400S (Shimadzu Corporation, Nakagyo-ku, Kyoto, Japan) spectrometer and analyzed at a resolution of 4 cm^−1.
Fibrils for the TEM images reported were obtained from the same samples that were used for FTIR, above, at the same timepoint. […] TEM images were recorded on a Hitachi 7650 transmission electron microscope in high contrast mode with an accelerating voltage of 80 kV. Fibril widths were measured in ImageJ and are reported as averages from 100–150 measurements.

Square brackets hold non-standard residues; d marks the D form. Peptide text beside a SMILES is read from it.

Regarding “Ac-KLVFFAE-NH2 [single enantiomer Aβ(16–22), self-assembled single enantiomer Aβ(16–22) sample (L- or D-enantiomer alone), pleated β-sheet]”, the “visible precipitate immediately after gentle mixing” value in data set [1] is “not in the single enantiomer self-assembly controls”. For the same molecule, the “critical concentration (Cr), final monomer concentration at equilibrium” value in data set [2] (110 μM total peptide (55 μM each enantiomer in mixture), PBS pH 7.4, 5% v/v DMSO, 0.1% NaN3, 37 °C, up to 21 days, aliquots centrifuged 436,000 × g 1 h 4 °C, supernatant monomer by analytical HPLC) turned out to be 24 ± 6 µM. The “time to reach equilibrium (constant monomer concentration)” value in data set [2] (110 μM total peptide, PBS pH 7.4, 5% DMSO, 37 °C, monomer by HPLC after ultracentrifugation) is recorded as “required over two weeks to reach a constant monomer concentration”. In addition, in data set [2] (from Cr = 1/Ka, PBS pH 7.4, 5% DMSO, 37 °C, 110 μM total peptide), the “ΔG for addition of monomer to fibril at equilibrium” value is -6.6 ± 0.2 kcal/mol.

`CC(=O)N[C@H](CCCCN)C(=O)N[C@H](CC(C)C)C(=O)N[C@@H](C(=O)N[C@H](Cc1ccccc1)C(=O)N[C@H](Cc1ccccc1)C(=O)N[C@H](C)C(=O)N[C@H](CCC(=O)O)C(N)=O)C(C)C` [D-Aβ(16–22), D-Ac-KLVFFAE-NH2] (Ac-[dK][dL][dV][dF][dF][dA][dE]-NH2): in data set [3], the “width of assemblies (TEM)” value came out at 11.8 ± 0.5 nm.

As to `CC(=O)N[C@@H](CCCCN)C(=O)N[C@@H](CC(C)C)C(=O)N[C@H](C(=O)N[C@@H](Cc1ccccc1)C(=O)N[C@@H](Cc1ccccc1)C(=O)N[C@@H](C)C(=O)N[C@@H](CCC(=O)O)C(N)=O)C(C)C` [L-Aβ(16–22), Ac-KLVFFAE-NH2] (Ac-KLVFFAE-NH2), the “width of assemblies (TEM)” value in data set [3] amounted to 11.8 ± 0.5 nm.
